According to publication PMC6199744, “Development of Chemical Proteomics for the Folateome and Analysis of the Kinetoplastid Folateome” (ACS Infectious Diseases, 2018):
“And” between values parts separate entries of the source, which are not always exact repeats. Identical values can stand only once. Like-named read-outs stand apart in the source and are kept apart here.

System: L. major lysate proteins
Assay: Multitargeted bead mixture chemoproteomics, single concentration competition, proteome-wide
Assay type: binding
Details: for fold change: vehicle control = 1

NCCOCCOCC(=O)Nc1nc2ncc(CNc3ccc(C(=O)NC(CCC(=O)O)C(=O)O)cc3)nc2c(=O)[nH]1 (stereo not drawn) [compound 6]
fold change vs vehicle control: 1.04 and 1.02
protein inhibition, any captured protein (Figure 8) (bead mixture, L. major lysate): no protein inhibition >30%
fold change vs vehicle control (protein CLI00016468.1 KINETOPLASTID MEMBRANE PROTEIN-11): 0.79
fold change vs vehicle control (protein LINJ.03.0240 RIBOSOMAL PROTEIN L38, PUTATIVE): 1.35
fold change vs vehicle control (protein LINJ.11.0780 40S RIBOSOMAL PROTEIN S21, PUTATIVE): 1.03
fold change (protein LINJ.11.0960 40S RIBOSOMAL PROTEIN S5): 1.03
fold change vs vehicle control (protein LINJ.13.0990 PROTEASOME REGULATORY ATPASE SUBUNIT 2, PUTATIVE): 0.92
fold change vs vehicle control (protein LINJ.15.0330 RIBONUCLEOPROTEIN P18, MITOCHONDRIAL PRECURSOR, PUTATIVE): 0.98
fold change (protein LINJ.19.0090 FIBRILLARIN, PUTATIVE): 0.87
fold change relative to vehicle control (protein LINJ.23.0860, 3-KETOACYL-COA THIOLASE, PUTATIVE): 1.25
fold change relative to vehicle control (protein LINJ.24.2300, 60S RIBOSOMAL PROTEIN L12, PUTATIVE): 1
fold change vs vehicle control (protein LINJ.25.2230 SUCCINYL-COA […] SUBUNIT, PUTATIVE): 1.06
fold change vs vehicle control (protein LINJ.26.1630 40S RIBOSOMAL PROTEIN S33, PUTATIVE): 1.13
fold change vs vehicle control (protein LINJ.28.1100 RIBOSOMAL PROTEIN S20, PUTATIVE): 0.92
fold change relative to vehicle control (protein LINJ.28.1940, REPLICATION FACTOR A, 51KDA SUBUNIT, PUTATIVE): 0.96
fold change (protein LINJ.28.2280 DYNEIN LIGHT CHAIN LC6, FLAGELLAR OUTER ARM, PUTATIVE): 0.7
fold change (protein LINJ.28.2870 PROTEIN PHOSPHATASE 4 CATALYTIC SUBUNIT, PUTATIVE): 0.82
fold change relative to vehicle control (protein LINJ.31.1600, […] OXIDASE VIII (COX VIII), PUTATIVE): 0.8
fold change relative to vehicle control (protein LINJ.33.1730, CYCLOPHILIN 4, PUTATIVE): 1.42
fold change vs vehicle control (protein LINJ.34.0670 […]-ATP-ASE SUBUNIT 11, PUTATIVE,19S […]): 1.08
fold change vs vehicle control (protein LINJ.36.0780 PROTEIN KINASE, PUTATIVE,MITOGEN-ACTIVATED PROTEIN KINASE, PUTATIVE): 1.16
fold change relative to vehicle control (protein LINJ.36.3960, BASIC TRA[…] 3A, PUTATIVE): 1.37
fold change vs vehicle control (protein LINJ.36.4070 EUKARYOTIC TRANSLATION INITIATION FACTOR 3 SUBUNIT, PUTATIVE): 0.98
fold change relative to vehicle control (protein LINJ.36.4080, HY[…], CONSERVED): 1.12
fold change (protein LINJ.36.4180 HS1VU COMPLEX P[…]-LIKE): 1.02
fold change vs vehicle control (protein LINJ.[…] LONG-CHAIN-FATTY-ACID-COA LIGASE, PUTATIVE): 0.98
fold change (protein LMJF.01.0570 TRIC[…], PUTATIVE): 0.96
fold change relative to vehicle control (protein LMJF.03.0200, DELTA-1-PYRROLINE-5-CARBOXYLATE DEHYDROGENASE, PUTATIVE): 1.14
fold change (protein LMJF.03.0230 LONG CHAIN FATTY ACYL COA SYNTHETASE, PUTATIVE): 1
fold change (protein LMJF.03.0980 ELONGATION INITIATION FACTOR 2 ALPHA SUBUNIT, PUTATIVE): 0.99
fold change vs vehicle control (protein LMJF.04.0630 HY[…], CONSERVED): 1.04
fold change vs vehicle control (protein LMJF.04.1230 actin): 1.07
fold change (protein LMJF.05.0100 PHOSPHOPROTEIN PHOSPHATASE, PUTATIVE): 0.99
fold change (protein LMJF.05.0280 PROTEIN TYROSINE PHOSPHATASE, PUTATIVE): 0.92
fold change (protein LMJF.05.0510 ATPASE ALPHA SUBUNIT): 1.08
fold change (protein LMJF.05.1040 STOMATIN-LIKE PROTEIN): 0.97
fold change (protein LMJF.06.0650 LANOSTEROL SYNTHASE, PUTATIVE): 0.97
fold change vs vehicle control (protein LMJF.07.0700 TOPOISOMERASE-RELATED FUNCTION PROTEIN-LIKE PROTEIN): 0.83
fold change (protein LMJF.07.1000 RNA BINDING PROTEIN-LIKE PROTEIN): 0.9
fold change relative to vehicle control (protein LMJF.07.1140, PEPTIDE […] REDUCTASE-LIKE): 1.14
fold change (protein LMJF.08.0510 RIBOSE-PHOSPHATE PYROPHOSPHOKINASE, PUTATIVE): 0.97
fold change vs vehicle control (protein LMJF.08.0550 T[…]-LIKE PROTEIN): 1.05
fold change relative to vehicle control (protein LMJF.08.1030, cathepsin L-like protease): 0.94
fold change vs vehicle control (protein LMJF.08.1100 HY[…], CONSERVED): 1.01
fold change vs vehicle control (protein LMJF.09.1010 HYPOTHETICAL PROTEIN, CONSERVED): 0.88
fold change relative to vehicle control (protein LMJF.09.1120, MIT[…] BINDING PROTEIN 2,MRP2, GBP25): 1.13
fold change vs vehicle control (protein LMJF.09.1260 HYPOTHETICAL PROTEIN, CONSERVED): 0.98
fold change (protein LMJF.10.0210 NUCLEOLAR PROTEIN, PUTATIVE): 1.03
fold change vs vehicle control (protein LMJF.10.0310 PROTEIN TRANSPORT PROTEIN SEC23, PUTATIVE): 0.91
fold change (protein LMJF.11.0590 3-[…]-COA C[…] SUBUNIT, PUTATIVE): 0.92
fold change relative to vehicle control (protein LMJF.11.0630, AMINOPEPTIDASE, PUTATIVE,METALLO-PEPTIDASE, CLAN MF, FAMILY M17): 1.13
fold change vs vehicle control (protein LMJF.11.1050 PRETRA[…], ALPHA SUBUNIT, PUTATIVE,SEC61-LIKE (PRETRA[…]) PROTEIN, PUTATIVE): 1.04
fold change (protein LMJF.11.1160 PROTEIN TRANSPORT PROTEIN SEC31, PUTATIVE): 0.87
fold change (protein LMJF.12.0030 PROTEASOME BETA-1 SUBUNIT, PUTATIVE): 0.9
fold change vs vehicle control (protein LMJF.12.0210 […] […]1L8 3, PUTATIVE): 0.98
fold change relative to vehicle control (protein LMJF.12.0530, GLUCOSE-6-PHOSPHATE ISOMERASE): 1.41
fold change (protein LMJF.12.0630 ALANINE AMINOTRANSFERASE): 0.95
fold change vs vehicle control (protein LMJF.13.1230 40S RIBOSOMAL PROTEIN S4, PUTATIVE): 1.22
fold change vs vehicle control (protein LMJF.14.0310 PROTEASOME ALPHA 3 SUBUNIT, PUTATIVE): 0.96
fold change (protein LMJF.14.0660 FATTY ACID ELONGASE, PUTATIVE): 1.14
fold change (protein LMJF.14.0670 FATTY ACID ELONGASE, PUTATIVE): 0.98
fold change vs vehicle control (protein LMJF.14.0680 FATTY ACID ELONGASE, PUTATIVE): 1.13
fold change (protein LMJF.14.0990 ADP/ATP MIT[…]-LIKE PROTEIN): 1.32
fold change vs vehicle control (protein LMJF.14.1160 ENOLASE): 1.1
fold change (protein LMJF.14.1440 HYPOTHETICAL PROTEIN, CONSERVED (cytoskeleton associated protein, putative)): 0.82
fold change (protein LMJF.15.0040 HYPOTHETICAL PROTEIN, CONSERVED (Possible lysine decarboxylase, putative)): 0.84
